# The source made the active and inactive calls. The rule behind the calls is not given here.
# Assays:
# Lasiodiplodia theobromae [1] = assay: Antifungal activity against Lasiodiplodia theobromae assessed as inhibition of conidium germination at 5 g/l incubated for 15 min followed by compound washout measured after 2 days by microscopic analysis in absence of surfactant APSA 80; assay type: functional, organism-based
# Colletotrichum musae [2] = assay: Antifungal activity against Colletotrichum musae assessed as inhibition of conidium germination at 5 g/l incubated for 15 min followed by compound washout measured after 7 days by microscopic analysis in presence of surfactant APSA 80; assay type: functional, organism-based
# Fusarium verticillioides [3] = assay: Antifungal activity against Fusarium verticillioides assessed as inhibition of conidium germination at 5 g/l incubated for 15 min followed by compound washout measured after 2 days by microscopic analysis in absence of surfactant APSA 80; assay type: functional, organism-based
# Colletotrichum musae [4] = assay: Growth inhibition of Colletotrichum musae assessed as concentration required for inhibition of mycelial growth incubated for 15 min followed by compound washout measured after 7 days in presence of surfactant APSA 80; assay type: functional
# Lasiodiplodia theobromae [5] = assay: Growth inhibition of Lasiodiplodia theobromae assessed as inhibition of mycelial growth up to 160 g/l incubated for 15 min followed by compound washout measured after 7 days in absence of surfactant APSA 80; assay type: functional, organism-based
# Fusarium verticillioides [6] = assay: Growth inhibition of Fusarium verticillioides assessed as inhibition of mycelial growth up to 160 g/l incubated for 15 min followed by compound washout measured after 7 days in presence of surfactant APSA 80; assay type: functional, organism-based
# Thielaviopsis paradoxa [7] = assay: Antifungal activity against Ceratocystis paradoxa assessed as inhibition of conidium germination at 5 g/l incubated for 15 min followed by compound washout measured after 2 days by microscopic analysis in absence of surfactant APSA 80; assay type: functional, organism-based
# Thielaviopsis paradoxa [8] = assay: Growth inhibition of Ceratocystis paradoxa assessed as inhibition of mycelial growth up to 160 g/l incubated for 15 min followed by compound washout measured after 7 days in absence of surfactant APSA 80; assay type: functional, organism-based
# Lasiodiplodia theobromae [9] = assay: Growth inhibition of Lasiodiplodia theobromae assessed as concentration required for inhibition of mycelial growth incubated for 15 min followed by compound washout measured after 7 days in presence of surfactant APSA 80; assay type: functional
# Colletotrichum musae [10] = assay: Antifungal activity against Colletotrichum musae assessed as inhibition of conidium germination at 5 g/l incubated for 15 min followed by compound washout measured after 2 days by microscopic analysis in absence of surfactant APSA 80; assay type: functional, organism-based
# Lasiodiplodia theobromae [11] = assay: Antifungal activity against Lasiodiplodia theobromae assessed as inhibition of conidium germination at 5 g/l incubated for 15 min followed by compound washout measured after 7 days by microscopic analysis in presence of surfactant APSA 80; assay type: functional, organism-based
# Musa acuminata AAA Group [12] = assay: Phytotoxicity against Musa acuminata AAA Group (Cavendish banana) assessed as skin burn incubated for 15 min followed by compound washout measured after 1 to 3 weeks in presence of surfactant APSA 80 relative to control; assay type: organism-based; details: in vivo
# Fusarium verticillioides [13] = assay: Antifungal activity against Fusarium verticillioides assessed as inhibition of conidium germination at 6 g/l incubated for 15 min followed by compound washout measured after 2 days by microscopic analysis in absence of surfactant APSA 80; assay type: functional, organism-based
# Colletotrichum musae [14] = assay: Growth inhibition of Colletotrichum musae assessed as inhibition of mycelial growth up to 160 g/l incubated for 15 min followed by compound washout measured after 7 days in presence of surfactant APSA 80; assay type: functional, organism-based
# Lasiodiplodia theobromae [15] = assay: Antifungal activity against Lasiodiplodia theobromae assessed as inhibition of conidium germination at 6 g/l incubated for 15 min followed by compound washout measured after 2 days by microscopic analysis in absence of surfactant APSA 80; assay type: functional, organism-based
# Colletotrichum musae [16] = assay: Antifungal activity against Colletotrichum musae assessed as inhibition of conidium germination at 6 g/l incubated for 15 min followed by compound washout measured after 2 days by microscopic analysis in absence of surfactant APSA 80; assay type: functional, organism-based
# Thielaviopsis paradoxa [17] = assay: Antifungal activity against Ceratocystis paradoxa assessed as inhibition of conidium germination at 6 g/l incubated for 15 min followed by compound washout measured after 7 days by microscopic analysis in presence of surfactant APSA 80; assay type: functional, organism-based
# Fusarium verticillioides [18] = assay: Antifungal activity against Fusarium verticillioides assessed as inhibition of conidium germination at 6 g/l incubated for 15 min followed by compound washout measured after 7 days by microscopic analysis in presence of surfactant APSA 80; assay type: functional, organism-based
# Colletotrichum musae [19] = assay: Antifungal activity against Colletotrichum musae assessed as inhibition of conidium germination at 6 g/l incubated for 15 min followed by compound washout measured after 7 days by microscopic analysis in presence of surfactant APSA 80; assay type: functional, organism-based
# Musa acuminata AAA Group [20] = assay: Phytotoxicity against Musa acuminata AAA Group (Cavendish banana) assessed as discoloration incubated for 15 min followed by compound washout measured after 1 to 3 weeks in presence of surfactant APSA 80 relative to control; assay type: organism-based; details: in vivo
# Lasiodiplodia theobromae [21] = assay: Growth inhibition of Lasiodiplodia theobromae assessed as inhibition of mycelial growth up to 160 g/l incubated for 15 min followed by compound washout measured after 7 days in presence of surfactant APSA 80; assay type: functional, organism-based
# Thielaviopsis paradoxa [22] = assay: Antifungal activity against Ceratocystis paradoxa assessed as inhibition of conidium germination at 6 g/l incubated for 15 min followed by compound washout measured after 2 days by microscopic analysis in absence of surfactant APSA 80; assay type: functional, organism-based
# Lasiodiplodia theobromae [23] = assay: Antifungal activity against Lasiodiplodia theobromae assessed as inhibition of conidium germination at 6 g/l incubated for 15 min followed by compound washout measured after 7 days by microscopic analysis in presence of surfactant APSA 80; assay type: functional, organism-based
# Colletotrichum musae [24] = assay: Growth inhibition of Colletotrichum musae assessed as concentration required for inhibition of mycelial growth incubated for 15 min followed by compound washout measured after 7 days in absence of surfactant APSA 80; assay type: functional
# Lasiodiplodia theobromae [25] = assay: Growth inhibition of Lasiodiplodia theobromae assessed as concentration required for inhibition of mycelial growth incubated for 15 min followed by compound washout measured after 7 days in absence of surfactant APSA 80; assay type: functional
# Fusarium verticillioides [26] = assay: Growth inhibition of Fusarium verticillioides assessed as concentration required for inhibition of mycelial growth incubated for 15 min followed by compound washout measured after 7 days in absence of surfactant APSA 80; assay type: functional
SMILES,inhibition (Lasiodiplodia theobromae [1]),inhibition (Colletotrichum musae [2]),inhibition (Fusarium verticillioides [3]),Activity (Lasiodiplodia theobromae [5]),Activity (Fusarium verticillioides [6]),inhibition (Thielaviopsis paradoxa [7]),Activity (Thielaviopsis paradoxa [8]),Activity (Lasiodiplodia theobromae [9]),inhibition (Colletotrichum musae [10]),inhibition (Lasiodiplodia theobromae [11]),Activity (Musa acuminata AAA Group [12]),Activity (Musa acuminata AAA Group [20]),also measured
[Ca+2].[Cl-].[Cl-] [CALCIUM CHLORIDE],Active,Active,Active,inactive,inactive,Active,inactive,100 g/L,Active,Active,–,–,Activity (Colletotrichum musae [4]): 140 g/L
[Cl-].[Na+] [SODIUM CHLORIDE],–,–,–,inactive,inactive,–,inactive,–,–,–,Toxic,Toxic,inhibition (Fusarium verticillioides [13]): Active; Activity (Colletotrichum musae [14]): inactive; inhibition (Lasiodiplodia theobromae [15]): Active; inhibition (Colletotrichum musae [16]): Active; inhibition (Thielaviopsis paradoxa [17]): Active; inhibition (Fusarium verticillioides [18]): Active; inhibition (Colletotrichum musae [19]): Active; Activity (Lasiodiplodia theobromae [21]): inactive; inhibition (Thielaviopsis paradoxa [22]): Active; inhibition (Lasiodiplodia theobromae [23]): Active
[Na+].[O-]Cl [SODIUM HYPOCHLORITE],Active,Active,Active,–,–,Active,–,20 g/L,Active,Active,Toxic,Toxic,Activity (Colletotrichum musae [24]): 50 g/L; Activity (Lasiodiplodia theobromae [25]): 20 g/L; Activity (Fusarium verticillioides [26]): 70 g/L

# Source: ChEMBL document CHEMBL3044541, “Control of crown rot-causing fungal pathogens of banana by inorganic salts and a surfactant” (Crop Prot, 2007)
